Test results: PubChem BioAssay (NCI)
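1) Cells in 96-well plates. 2) Compound, 48 h, 5 concentrations. 3) Linear interpolation between surrounding doses. 4) Unreached endpoint = highest concentration. GI50: concentration for 50% inhibition of growth. TGI: concentration producing complete growth inhibition.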

Tests used:
Test in all cases: NCI-60 cell line screen, 48 h
SK-MEL-5 melanoma = system: SK-MEL-5 melanoma
NCI-H226 lung = system: NCI-H226 lung
IGROV1 ovarian = system: IGROV1 ovarian
SN12C renal = system: SN12C renal
HOP-92 NSCLC = system: HOP-92 NSCLC
OVCAR-4 ovarian = system: OVCAR-4 ovarian
CCRF-CEM leukemia = system: CCRF-CEM leukemia
M14 melanoma = system: M14 melanoma
HCT-116 colon = system: HCT-116 colon
ACHN renal = system: ACHN renal

Compound	TGI (SK-MEL-5 melanoma)	TGI (NCI-H226 lung)	TGI (IGROV1 ovarian)	TGI (SN12C renal)	TGI (HOP-92 NSCLC)	TGI (OVCAR-4 ovarian)	TGI (CCRF-CEM leukemia)	TGI (M14 melanoma)	TGI (HCT-116 colon)	TGI (ACHN renal)	GI50 (SK-MEL-5 melanoma)	GI50 (NCI-H226 lung)	GI50 (IGROV1 ovarian)	GI50 (SN12C renal)	GI50 (HOP-92 NSCLC)	GI50 (OVCAR-4 ovarian)	GI50 (CCRF-CEM leukemia)	GI50 (M14 melanoma)	GI50 (HCT-116 colon)	GI50 (ACHN renal)
CC(C)C1=CC(=O)C(C)(C2C(O)CC3(C)C4CC=C5C(CCC(OC6OC(CO)C(O)C(O)C6OC6OC(C)C(O)C(O)C6O)C5(C)C)C4(C)C(=O)CC23C)O1 (centres undefined)	> 100 µM	> 100 µM	> 100 µM	> 100 µM	> 100 µM	> 100 µM	> 100 µM	> 100 µM	> 100 µM	> 100 µM	–	–	–	–	–	–	–	–	–	–
O=C1NC(Cc2ccc(O)cc2)C(=O)N2CCCC12 (centres undefined)	> 100 µM	> 100 µM	> 100 µM	> 100 µM	> 100 µM	> 100 µM	> 100 µM	> 100 µM	> 100 µM	> 100 µM	–	–	–	–	–	–	–	–	–	–
CCOC(=O)C1Cc2c(cc3c4c(cccc24)N(C(C)=O)C3)N(C)C1 (centres undefined)	> 100 µM	9.37 µM	> 100 µM	> 100 µM	99.7 µM	> 100 µM	> 100 µM	> 100 µM	> 100 µM	> 100 µM	–	–	–	–	–	–	–	–	–	–
NS(=O)(=O)c1ccc(Nc2cc(-c3cccc(O)c3)[nH]n2)cc1	> 25 µM	> 25 µM	> 25 µM	> 25 µM	> 25 µM	> 25 µM	> 25 µM	> 25 µM	> 25 µM	> 25 µM	14.8 µM	> 25 µM	> 25 µM	> 25 µM	10.2 µM	13.5 µM	8.04 µM	> 25 µM	> 25 µM	> 25 µM
CCOC(=O)c1ccc(NC(=O)Nc2nncs2)cc1	5.16 µM	19.5 µM	14.8 µM	16.1 µM	0.947 µM	21.5 µM	> 52.7 µM	3.02 µM	11.8 µM	23.9 µM	0.0672 µM	1.09 µM	0.374 µM	0.662 µM	–	0.916 µM	0.23 µM	0.104 µM	0.109 µM	1.24 µM
Fc1cccc(COc2ccc(Nc3ncnc4sc(-c5cccs5)cc34)cc2Cl)c1	12 µM	15.2 µM	> 25 µM	> 25 µM	10.2 µM	8.66 µM	> 25 µM	> 25 µM	> 23.8 µM	7.24 µM	2.93 µM	4.58 µM	8.73 µM	9.2 µM	3.3 µM	2.06 µM	> 25 µM	7.66 µM	7.59 µM	3.24 µM
COc1ccc(/C=C(/C#N)C(N)=O)c(OC)c1	> 100 µM	> 100 µM	> 100 µM	> 100 µM	> 100 µM	> 100 µM	> 100 µM	> 100 µM	> 100 µM	> 100 µM	–	–	–	–	–	–	–	–	–	–
O=C(Nc1ccc2[nH]nc(-c3ccncc3)c2c1)[C@@H]1CCN(CC(=O)N2CCN(c3ccc(-c4ncccn4)cc3)CC2)C1	> 100 µM	> 100 µM	> 100 µM	> 100 µM	1.81 µM	> 100 µM	> 100 µM	0.289 µM	> 44.6 µM	> 100 µM	0.607 µM	> 100 µM	0.964 µM	> 100 µM	0.105 µM	5.91 µM	5.49 µM	0.0282 µM	0.0783 µM	2.08 µM
CC(C)(Br)C(=O)N1CCN(C(c2ccccc2)c2ccccc2)CC1	> 100 µM	> 100 µM	> 100 µM	> 100 µM	> 100 µM	> 100 µM	> 100 µM	> 100 µM	> 100 µM	> 100 µM	–	–	–	–	–	–	–	–	–	–
Cc1ccc(S(=O)(=O)OCCn2cnc3nc(NC(=O)c4ccccc4)[nH]c(=O)c32)cc1	> 100 µM	> 100 µM	> 100 µM	> 100 µM	> 100 µM	> 100 µM	> 100 µM	> 100 µM	> 100 µM	> 100 µM	–	–	–	–	–	–	–	–	–	–
Cc1cc2nc3c4cc(O)ccc4n(CCN(C)C)c3nc2cc1C	2.97 µM	5.45 µM	2.89 µM	12.4 µM	2.62 µM	3.63 µM	6 µM	1.91 µM	3.36 µM	10.3 µM	1.59 µM	1.18 µM	0.474 µM	0.586 µM	0.287 µM	1.34 µM	0.518 µM	0.523 µM	0.397 µM	0.408 µM
